# Laboratory results taken from patent US9657348B2, “Method of screening compounds for the treatment of diabetes” (ATROGI AB, priority 2013, dated 2017).
# Entries after “also recorded” stand apart in the source; their conditions may differ. Starred links: 1 amine or outer side, 2 acyl side, 3 side chain; linkers in the order of their positions; H or OH if unused. Positions of bridges follow the written chain, without caps; N, C: chain ends. Non-standard residues stand in square brackets, D forms with d. Residues, ends and D or L forms follow the SMILES beside them. Chains are numbered I, II in the order given. Actinocin(9to1) = Cc1c2oc3c(C)ccc(C(=O)[*:1])c3nc-2c(C(=O)[*:2])c(N)c1=O; NMeV = CN[C@H](C(=O)O)C(C)C; Sar = CNCC(=O)O
# Key:
# [1] = test system: Human prostate carcinoma (22rv1) cells; assay: Glucose uptake in 22rv1 cells with or without GRK2 siRNA; type: cell-based; details: FIG. 8
# Protocol: Human prostate carcinoma (22rv1) cells were grown for 7 days in RPMI-1640 medium. […] At day 7, 22rv1 cells were treated with siRNA. siRNA constructs GRK2 (Sigma Aldrich) as well as control sequence were transfected into 22rv1 cells by lipofectamine (Life Technologies Corp.) according to the manufacturer's protocol. Cells were serum starved over night and glucose uptake was measured 24 hours after transfection. Cells were stimulated with drugs for totally 2 h, unless otherwise stated.
# [2] = test system: L6 skeletal muscle cells; assay: 3H-2-deoxyglucose uptake in L6 myotubes, with or without inhibitors or GRK2 siRNA; type: cell-based, rat; details: for basal glucose uptake in presence of inhibitor / insulin- and GPCR-stimulated glucose uptake in presence of inhibitor / glucose uptake / effect of GRK2 knock-down with siRNA on glucose uptake stimulated by the substance: L6 myotubes; for basal glucose uptake in presence of inhibitor / insulin- and GPCR-stimulated glucose uptake in presence of inhibitor: inhibitor pretreatment 30 min; for insulin- and GPCR-stimulated glucose uptake in presence of inhibitor: then insulin or GPCR stimulation; for glucose uptake: stimulation with drug; for effect of GRK2 knock-down with siRNA on glucose uptake stimulated by the substance: FIG. 7, FIG. 9B
# Protocol: Cells were grown as in Example 1. Cells were pretreated with inhibitors for 30 min and then exposed to GPCR stimulation.
# GRK2 siRNA constructs (Sigma Aldrich) as well as control sequence was transfected into L6 mytoubes by electroporation. Differentiated L6 cells were detached by washing in PBS followed by 5 minutes of incubation in trypsin/EDTA (0.1% trypsin w/v, 0.02% EDTA w/v). The detached cells were transferred to Eppendorf tubes and centrifugation at 1000×g for 3 minutes was performed before supernatant was removed and the cells were resuspended in 20 μl/well of SE Cell Line Nucleofector® (Lonza) and 100 nM siRNA. Cells were transferred to a 16-well microcuvette plate (Lonza) and were electroporated in a 4D-Nucleofector® (Lonza). 80 μl of pre-warmed RPMI1640 medium were added to the each microcuvette well for 5 min before the cells were transferred to the Eppendorf tubes containing culture media. Cells were serum starved over night and glucose uptake measured 24 hours after transfection.
# Glucose uptake was detected by ^3H-2-dexoy-glucose as previously described (Nevzorova 2002), with minor modifications. Differentiated L6-myotubes were serum-starved over night in media containing 0.5% fatty-acid free BSA and stimulated with agonists for totally 2 h, unless otherwise stated. Cells were exposed to 50 nM ^3H-2-dexoy-glucose in glucose free media for 6-10 minutes before the experiment was ended by washing the cells in ice-cold PBS or glucose free media. Cells were lysed in 0.2 M NaOH for 1 h in 60° C., mixed with scintillation buffer (Emulsifier Safe, Perkin Elmer) and radioactivity detected in a β-counter (Tri-Carb 2800TR, Perkin Elmer).
# [3] = test system: L6 skeletal muscle cells; assay: Cell viability of L6 cells under transcription/translation inhibitor
# [4] = test system: cAMP; assay: cAMP content over time in L6 myotubes; type: cell-based, rat; details: for maximum difference in cAMP versus cells not brought into contact (Δ1): L6 myotubes
# Protocol: Further, to determine whether contacting BRL37344 causes a response of a classical secondary messenger in cells with which it is brought into contact, the concentration of cAMP was measured during a period of time. As a reference, cAMP in cells not brought into contact was measured. In FIG. 9A the difference Δ1 for BRL37344 is plotted, and the maximum difference is about 8 pmol. […] The calculated value of r″ therefore is 8/45=0.18.
# [5] = test system: GLUT4; assay: GLUT4 translocation to plasma membrane by immunocytochemistry in L6 cells; type: cell-based, rat; details: non-permeabilized L6 myoblasts; 1 μM, 2 h
# [6] = test system: soleus muscle; assay: 3-O-methylglucose transport (glucose uptake) in isolated soleus muscle; type: cell-based; details: soleus muscle from rat; FIG. 1A
# Protocol: (§1) Soleus muscles were dissected from Sprague-Dawley rats and suspended in Krebs-Henseleit bicarbonate (KHB) buffer (118.5 mM NaCl, 4.7 mM KCl, 1.2 mM KH2PO4, 25 mM NaHCO3, 2.5 mM CaCl2, 1.2 mM MgSO4, 5 mM HEPES) in organ baths containing 30 ml KHB containing 5 mM glucose and 15 mM mannitol, bubbled with 95% O2/5% CO2 (pH 7.4) and maintained at 37° C. […] Muscles were rinsed with KHB (20 mM mannitol) for 10 min, then incubated in KHB (8 mM 3-O-methylglucose and 12 mM mannitol with 438 μCi/mmol 3-O-methyl[3H]glucose (80.2 Ci/mmol; PerkinElmer) and 42 μCi/mmol [^14C] mannitol (58.8 mCi/mmol; PerkinElmer, USA)) for 12 min. Muscles were then rinsed with PBS and frozen in liquid nitrogen, weighed and dissolved in 1 mL of 0.5M NaOH at 60° C. ^3H and ^14C were measured by liquid scintillation counting. Total muscle 3-O-methylglucose and extracellular space were measured as described previously (Zierath 1995). Intracellular 3-O-methylglucose accumulation was calculated by: (Total muscle 3-O-methylglucose)−(extracellular 3-O-methylglucose)=intracellular 3-O-methylglucose. This was then expressed as a rate of 3-O-methylglucose transport per mL of intracellular water per hour. Glucose uptake was measured in L6 skeletal muscle cells and in human skeletal muscle cells (SKMC) grown in 12-well plates using ^3H-2-deoxyglucose as previously described (Nevzorova et al. 2002) with minor modifications. […]
# [7] = test system: human skeletal muscle cells (SKMC); assay: 3H-2-deoxyglucose uptake in human skeletal muscle cells; type: cell-based; details: FIG. 1C
# Protocol: as §1
molecule,measurement,setting,value
Cc1cc(C(C)(C)C)c(O)c(C)c1CC1=NCCN1 [oxymetazoline],effect of GRK2 down-regulation with siRNA on glucose uptake stimulated by the substance,[1],inhibited
"NC[C@H](O)c1ccc(O)c(O)c1 [norepinephrine (NA), norepinephrine]",effect of GRK2 down-regulation with siRNA on glucose uptake stimulated by the substance,[1],inhibited
C=C1[C@@H](C)[C@H]2[C@H](Cc3ccccc3)NC(=O)[C@]23OC(=O)/C=C/[C@H](O)CCC[C@@H](C)C/C=C/[C@H]3[C@@H]1O [cytochalasin B],basal glucose uptake in presence of inhibitor,[2],reduced basal glucose uptake
same,insulin- and GPCR-stimulated glucose uptake in presence of inhibitor,[2],reduced
"Cc1c2oc3c(C)ccc(C(=O)N[C@@H]4C(=O)N[C@H](C(C)C)C(=O)N5CCC[C@H]5C(=O)N(C)CC(=O)N(C)[C@@H](C(C)C)C(=O)O[C@@H]4C)c3nc-2c(C(=O)N[C@@H]2C(=O)N[C@H](C(C)C)C(=O)N3CCC[C@H]3C(=O)N(C)CC(=O)N(C)[C@@H](C(C)C)C(=O)O[C@@H]2C)c(N)c1=O [actinomycin, Actinomycin D] (I: T[dV]P[Sar][NMeV] / II: T[dV]P[Sar][NMeV]; ester I:1-I:C, II:1-II:C; linker I:N-II:N via Actinocin(9to1))",cell viability,[3],did not significantly affect
same,basal glucose uptake in presence of inhibitor,[2],did not significantly affect
same,insulin- and GPCR-stimulated glucose uptake in presence of inhibitor,[2],did not significantly affect
"C[C@H](Cc1ccc(OCC(=O)O)cc1)NC[C@H](O)c1cccc(Cl)c1 (relative stereo) [BRL37344, (±)-(R*,R*)-[4-[2-[[2-(3-chlorophenyl)-2-hydroxy-ethyl]amino]propyl]phenoxy]acetic acid]",glucose uptake in % of the glucose uptake of the same cells brought into contact with vehicle only,"[2]; (untransfected) cells expressing GRK2, FIG. 9B",175%
same,glucose uptake,[2],stimulate glucose uptake
same,effect of GRK2 knock-down with siRNA on glucose uptake stimulated by the substance,[2],significantly inhibited
same,glucose uptake in % of vehicle,"[2]; transfected (GRK2 siRNA) cells not expressing GRK, FIG. 9B",125%
same,ratio r″ (cAMP response of compound / cAMP response of isoproterenol),[4]; 8/45,0.18
same,maximum difference in cAMP versus cells not brought into contact (Δ1),[4]; FIG. 9A,about 8 pmol
same,contents of cAMP over basal,"[4]; skeletal muscle cells (L6 myotubes), all time points, FIG. 9A",did not significantly increase
CS(=O)(=O)Nc1c(O)ccc2c1CCCC2C1=NCCN1 (centres unmarked) [A61603],effect of GRK2 down-regulation with siRNA on glucose uptake stimulated by the substance,[1],inhibited
CC(C)(C)NC(=O)[C@@H]1CN(Cc2cccnc2)CCN1C[C@@H](O)C[C@@H](Cc1ccccc1)C(=O)N[C@H]1c2ccccc2C[C@H]1O [indinavir],basal glucose uptake in presence of inhibitor,[2],blocked basal glucose uptake
same,insulin- and GPCR-stimulated glucose uptake in presence of inhibitor,[2],significantly reduced
"O=C(CCc1ccc(O)cc1)c1c(O)cc(O)cc1O [Phloretin, phloretin]",basal glucose uptake in presence of inhibitor,[2],blocked basal glucose uptake
same,insulin- and GPCR-stimulated glucose uptake in presence of inhibitor,[2],significantly reduced
C[C@@H]1C[C@@H]([C@H](O)CC2CC(=O)NC(=O)C2)C(=O)[C@@H](C)C1 [cyclohexamide],basal glucose uptake in presence of inhibitor,[2],did not affect
same,insulin- and GPCR-stimulated glucose uptake in presence of inhibitor,[2],did not affect
insulin,GLUT4 recruitment to the plasma membrane,[5],GLUT4 recruitment to the plasma membrane to the same extent
same,glucose uptake,[2],increased glucose uptake
same,effect of GRK2 knock-down with siRNA on glucose uptake stimulated by the substance,[2],could not be blocked; also recorded: does not inhibit
same,effect of GRK2 down-regulation with siRNA on glucose uptake stimulated by the substance,[1],does not inhibit
"CC(C)NCC(O)c1ccc(O)c(O)c1 (racemic) [isoproterenol, (RS)-4-[1-hydroxy-2-(isopropylamino)ethyl]benzene-1,2-diol]",GLUT4 recruitment to the plasma membrane,[5],GLUT4 recruitment to the plasma membrane to the same extent
same,glucose uptake,[6],leads to glucose uptake
same,maximum difference in cAMP versus cells not brought into contact (Δ1),[4]; FIG. 9A,about 45 pmol
same,glucose uptake,[7],leads to glucose uptake
